From US20100227863A1, “SUBSTITUTED 3-(4-HYDROXYPHENYL)-INDOLIN-2-ONE COMPOUNDS” (TOPOTARGET A/S, priority 2007, published 2010)

System: MCF-7 cells
Experiment: In vitro cell proliferation assay (WST assay)
Format: cell-based
Settings: total incubation time 72 h, viable cells by WST-1 reagent
Procedure: In vitro Cell Proliferation Assay (WST Assay)
MCF-7 cells were seeded in 96-well plates at 3×10^3 cells/well in 100 μL of culture medium, 8 wells were left empty for media only controls.
After 24 h the compound titrations were performed, in a separate dilution plate, by serially diluting the compounds of general formula (I) in culture medium. A 100 μL of each dilution was added to the plated cells, this was done in triplicate, and controls (e.g. DMSO and blanks) were included. The plates were incubated for 24 h at 37° C. in a CO2 incubator. The compound titrations were repeated in a separate dilution plate after 24 h. The media plus compound from the assay plates were then aspirated. A 100 μL of media was then added to all wells, followed by 100 μL of each compound dilution. The plates were incubated for a further 48 h at 37° C. in a CO2 incubator (total incubation time 72 h). The number of viable cells was then assessed using Cell Proliferation Reagent WST-1. 10 μL of WST-1 reagent added to each well and incubated for one to four hours at 37° C. in CO2 incubator. The absorbance was measured (450 nm/690 nm).
The activity of compounds of general formula (I) in reducing the number of viable cells was calculated as:
% activity=[(S^c−B)/(S^o−B)]×100
S^c denotes signal measured in the presence of test compound, S^o denotes signal detected in the absence of compound, and B denotes background signal, measured in blank wells containing medium only. Analyse data using GraphPad Prism.

IC50 (Homo sapiens, MCF7, 72 h) [nM] | IC50 [nM] | Structure (SMILES)
5.2 |  | O=C1Nc2c(ccc(F)c2F)C1(c1ccc(O)cc1)c1ccc(F)c(F)c1 (stereo not drawn) [Compound 1022, 3-(3,4-difluorophenyl)-6,7-difluoro-3-(4-hydroxyphenyl)indolin-2-one]
10.5 |  | Cc1ccc2c(c1Br)NC(=O)C2(c1ccc(O)cc1)C1CCCCC1 (stereo not drawn) [Compound 1056, 7-bromo-3-cyclohexyl-3-(4-hydroxyphenyl)-6-methylindolin-2-one]
25.9 |  | Cc1ccc2c(c1C)NC(=O)C2(c1ccc(O)cc1)C1CCCCC1 (stereo not drawn) [Compound 1025, 3-cyclohexyl-3-(4-hydroxyphenyl)-6,7-dimethylindolin-2-one]
9.1 |  | Cc1ccc2c(c1F)NC(=O)C2(c1ccc(O)cc1)C1CCCCCC1 (stereo not drawn) [Compound 1034, 3-cycloheptyl-7-fluoro-3-(4-hydroxyphenyl)-6-methylindolin-2-one]
34.5 |  | O=C1Nc2c(ccc(F)c2F)C1(c1ccncc1)c1ccc(O)cc1 (stereo not drawn) [Compound 1006, 6,7-difluoro-3-(4-hydroxyphenyl)-3-(pyridin-4-yl)indolin-2-one]
3.4 |  | O=C1Nc2c(ccc(F)c2F)C1(c1ccc(O)cc1)C1CCCCCC1 (stereo not drawn) [Compound 1018, 3-cycloheptyl-6,7-difluoro-3-(4-hydroxyphenyl)indolin-2-one]
10.2 |  | O=C1Nc2c(ccc(F)c2F)C1(c1ccc(O)cc1)c1ccc2ccccc2c1 (stereo not drawn) [Compound 1033, 6,7-difluoro-3-(4-hydroxyphenyl)-3-(naphthalene-2-yl)indolin-2-one]
 | 3.9 | O=C1Nc2c(ccc(F)c2F)C1(c1ccc(O)cc1)C1CCCCC1 (single isomer, unassigned) [Compound 1027, 3-cyclohexyl-6,7-difluoro-3-(4-hydroxyphenyl)indolin-2-one]
12.6 |  | COc1ccc2c(c1C)NC(=O)C2(c1ccc(O)cc1)C1CCCCC1 (stereo not drawn) [Compound 1046, 3-cyclohexyl-3-(4-hydroxyphenyl)-6-methoxy-7-methylindolin-2-one]
6.8 |  | O=C1Nc2c(Br)cccc2C1(c1ccc(O)cc1)C1CCCCC1 (stereo not drawn) [Compound 1062, 7-bromo-3-cyclohexyl-3-(4-hydroxyphenyl)indolin-2-one]
10 |  | COc1cc(C)c2c(c1)C(c1ccc(O)cc1)(C1CCCCC1)C(=O)N2 (stereo not drawn) [Compound 1070]
 | > 500 | O=C1Nc2c(ccc(F)c2F)C1(c1ccc(O)cc1)C1CCCCC1 (single isomer, unassigned) [Compound 1028, 3-cyclohexyl-6,7-difluoro-3-(4-hydroxyphenyl)indolin-2-one]
19.1 |  | Cc1ccc2c(c1C)NC(=O)C2(c1ccc(O)cc1)C1CCCCCC1 (stereo not drawn) [Compound 1043, 3-cycloheptyl-3-(4-hydroxyphenyl)-6,7-dimethylindolin-2-one]
4 |  | Cc1ccc(C2(c3ccc(O)cc3)C(=O)Nc3c2ccc(F)c3F)cc1F (stereo not drawn) [Compound 1023, 6,7-difluoro-3-(3-fluor-4-methylphenyl)-3-(4-hydroxyphenyl)indolin-2-one]
3.5 |  | Cc1ccc2c(c1Cl)NC(=O)C2(c1ccc(O)cc1)C1CCCCCC1 (stereo not drawn) [Compound 1053, 7-chloro-3-cycloheptyl-3-(4-hydroxyphenyl)-6-methylindolin-2-one]
5.7 |  | Cc1c(F)ccc2c1NC(=O)C2(c1ccc(O)cc1)C1CCCCC1 (stereo not drawn) [Compound 1039, 3-cyclohexyl-6-fluoro-3-(4-hydroxyphenyl)-7-methylindolin-2-one]
8.4 |  | O=C1Nc2c(ccc(F)c2F)C1(c1ccc(O)cc1)c1ccc(O)cc1 [Reference compound, 6,7-Difluoro-3,3-bis-(4-hydroxy-phenyl)-1,3-dihydro-indol-2-one, reference compound]
7.3 |  | O=C1Nc2c(ccc(F)c2F)C1(c1ccc(O)cc1)C1CCCCC1 (stereo not drawn) [Compound 1010, 3-cyclohexyl-6,7-difluoro-3-(4-hydroxyphenyl)indolin-2-one]
4.7 |  | COc1ccc2c(c1C)NC(=O)C2(c1ccc(O)cc1)C1CCCCCC1 (stereo not drawn) [Compound 1087, 3-cycloheptyl-3-(4-hydroxyphenyl)-6-methoxy-7-methylindolin-2-one]
17.5 |  | O=C1Nc2c(C(F)(F)F)cccc2C1(c1ccc(O)cc1)C1CCCCC1 (stereo not drawn) [Compound 1021, 3-cyclohexyl-3-(4-hydroxyphenyl)-7-(trifluoromethyl)indolin-2-one]
32.9 |  | Cc1cccc2c1NC(=O)C2(c1ccc(O)cc1)C1CCCCC1 (stereo not drawn) [Compound 1059, 3-cyclohexyl-3-(4-hydroxyphenyl)-7-methylindolin-2-one]
